Consider ten molecules from ChEMBL document CHEMBL3352713, “A new class of salicylic acid derivatives for inhibiting YopH of Yersinia pestis” (Bioorg Med Chem, 2014).

What is called IC50 is the concentration needed to halve the response being measured. Read a low IC50 as higher potency. A word on the Ki: it is the dissociation constant of the complex between target and ligand, obtained from inhibition or displacement.

Some results are limits rather than exact numbers.

Experiment [1] can be described thus: Inhibition of Yersinia pestis YopH using […] as substrate by spectrophotometry.
The nature of experiment [2]: Selectivity for Yersinia pestis YopH over PTP1B (unknown origin) at 5 nM.
The nature of experiment [3]: Selectivity for Yersinia pestis YopH over TCPTP (unknown origin) at 5 nM.
The nature of experiment [4]: Selectivity for Yersinia pestis YopH over HePTP (unknown origin) at 5 nM.
Experiment [5] in a line: Selectivity for Yersinia pestis YopH over CD45 (unknown origin) at 5 nM.
Experiment [6] is described as follows: Selectivity for Yersinia pestis YopH over VHR (unknown origin) at 5 nM.
The nature of experiment [7]: Selectivity for Yersinia pestis YopH over Cdc25A (unknown origin) at 5 nM.

`O=C(CCCCNC(=O)c1ccc(-c2ccc(O)c(C(=O)O)c2)s1)Nc1nc(-c2ccccc2)cs1` returned an IC50 in experiment [1] of 11.1 µM. Same read-out and setting: to `O=C(CCCCNC(=O)c1cc(-c2ccc(O)c(C(=O)O)c2)cs1)Nc1nc(-c2ccccc2)cs1` belongs 44.2 µM; to `O=C(CCCCNC(=O)c1ccc(-c2ccc(O)c(C(=O)O)c2)s1)Nc1nc2ccccc2s1`, over 20 µM. The molecule `O=C(CCCCNC(=O)c1cc(-c2ccc(O)c(C(=O)O)c2)cs1)Nc1nc2ccccc2s1` displayed a concentration for half-maximal inhibition (IC50) in experiment [1] of 39.5 µM. Consider `O=C(CCCCNC(=O)c1cc(-c2ccc(O)c(C(=O)O)c2)on1)Nc1ccc(N2CCOCC2)cc1`, for which half-maximal inhibition in experiment [1] (IC50) was put at 63 µM. Compared with the last molecule, the IC50 is about 1.6-fold higher.

On to `O=C(CCNC(=O)c1ccc(-c2ccc(O)c(C(=O)O)c2)s1)Nc1nc(-c2ccccc2)cs1`, for which the IC50 in experiment [1] was over 50 µM. For `O=C(CCCCNC(=O)c1ccc(-c2ccc(O)c(C(=O)O)c2)s1)Nc1ccc(N2CCOCC2)cc1`, in experiment [1], the IC50 is over 200 µM. As for `O=C(CCCCNC(=O)c1ccc(-c2ccc(O)c(C(=O)O)c2)s1)NCc1ccccc1`, the IC50 in experiment [1] was over 200 µM. On to `O=C(CCCCNC(=O)c1cc(-c2ccc(O)c(C(=O)O)c2)on1)Nc1nc(-c2ccccc2)cs1`, for which the IC50 in experiment [1] worked out at 23 µM. Molecule `O=C(O)C1=CC(=C(c2ccc(O)c(C(=O)O)c2)c2ccc(O)c(C(=O)O)c2)C=CC1=O` [AURINTRICARBOXYLIC ACID] came in with a Ki in experiment [1] of 0.005 µM. For the same molecule, the Selectivity ratio in experiment [2], in experiment [3], in experiment [4], in experiment [5], in experiment [6] and in experiment [7] was 6 each time.
